Earlier results as cited in patent publication EP0535567A1, “Liposomes containing volatile inhalation anaesthetics, their preparation and their use” (B. Braun Melsungen AG, priority 1991, dated 1993).

Settings: fraction of the anaesthetic that is metabolised

For `FC(F)OC(Cl)C(F)(F)F` (stereo not shown) [Isofluran, 1-Chlor-2,2,2-trifluorethyl(difluormethyl)ether], the verstoffwechselt is listed as less than 2%.
